Measured values published in ChEMBL document CHEMBL3352306, “Synthesis and antitumor activity of feruloyl and caffeoyl derivatives” (Bioorg Med Chem Lett, 2014).
Activity calls are given as the source filed them. The calls are words filed in the database; no cut-off is given here.

Key:
[1] = tested on: HeLa; assay: Antitumor activity against human HeLa cells assessed as inhibition of cell growth by MTT assay; type: functional, cell-based
[2] = tested on: SiHa; assay: Antitumor activity against human SiHa cells assessed as inhibition of cell growth by MTT assay; type: functional, cell-based
[3] = tested on: BeWo; assay: Antitumor activity against human Bewo cells assessed as inhibition of cell growth by MTT assay; type: functional, cell-based
[4] = Antitumor activity against human HL60 cells assessed as inhibition of cell growth by MTT assay; type: functional, cell-based; conditions: HL-60
[5] = Antitumor activity against human SGC7901 cells assessed as inhibition of cell growth by MTT assay; type: functional, cell-based; conditions: SGC-7901
[6] = tested on: HepG2; assay: Antitumor activity against human HepG2 cells assessed as inhibition of cell growth by MTT assay; type: functional, cell-based
[7] = Antitumor activity against human Bel7404 cells assessed as inhibition of cell growth by MTT assay; type: functional, cell-based; conditions: BEL-7404
[8] = tested on: A549; assay: Antitumor activity against human A549 cells assessed as inhibition of cell growth by MTT assay; type: functional, cell-based
[9] = Antitumor activity against human […] cells assessed as inhibition of cell growth by MTT assay; type: functional, cell-based
[10] = tested on: MCF7; assay: Antitumor activity against human MCF7 cells assessed as inhibition of cell growth by MTT assay; type: functional, cell-based
[11] = tested on: HL-60; assay: Induction of cell morphological changes in human HL60 cells at 2.5 to 10 ug/mL; type: functional, cell-based
[12] = tested on: HL-60; assay: Induction of apoptosis in human HL60 cells at 0.5 to 2 ug/mL by flow cytometry; type: functional, cell-based
[13] = tested on: CCRF S-180; assay: Antitumor activity against mouse S180 cells implanted in mouse assessed as inhibition of tumor growth at 40 mg/kg; type: functional

Row | Compound | IC50 [1] | IC50 [2] | IC50 [3] | IC50 [4] | IC50 [5] | IC50 [6] | IC50 [7] | IC50 [8] | IC50 [9] | IC50 [10] | Activity [11] | Activity [12] | inhibition in vivo at 40 mg/kg [13]
1 | O=C(/C=C/c1ccc(O)c(O)c1)NC12CC3CC(CC(C3)C1)C2 | 10.2 µM | 41.3 µM | 1.09 µM | 8.18 µM | 29.8 µM | 30.1 µM |  |  |  |  |  |  | 
2 | O=C(/C=C/c1ccc(O)c(O)c1)Oc1ccccc1 | 29.8 µM | 52.3 µM | 30.7 µM | 10.8 µM | 90.3 µM | 50.8 µM |  |  |  |  |  |  | 
3 | CC(C)(COC(=O)/C=C/c1ccc(O)c(O)c1)[N+](=O)[O-] | 23.6 µM | 30.5 µM | 7.26 µM | 9.32 µM | > 100 µM | 38.1 µM |  |  |  |  |  |  | 
4 | CCCCCCCCOC(=O)/C=C/c1ccc(O)c(O)c1 | 34.9 µM | 45.9 µM | 13.1 µM | 8.29 µM | 56 µM | 54.3 µM |  |  |  |  |  |  | 
5 | O=C(/C=C/c1cc(O)c(O)c(Br)c1)OCCc1ccccc1 | 17.5 µM | 28.5 µM | 8.24 µM | 8.49 µM | 6.75 µM | 4.44 µM |  |  |  |  |  |  | 
6 | O=C(/C=C/c1cc(O)c(O)c(Cl)c1)NC12CC3CC(CC(C3)C1)C2 | 50 µM | 18.9 µM | 68.4 µM | 35.6 µM |  |  |  |  |  |  |  |  | 
7 | O=C(/C=C/c1ccc(O)c(O)c1)O[C@H]1C[C@@](O)(C(=O)O)C[C@H](O)[C@@H]1O |  |  |  | > 100 µM | > 100 µM | > 100 µM |  |  |  |  |  |  | 
8 | CCCCCCC(C)OC(=O)/C=C/c1ccc(O)c(O)c1 (stereo unspecified) | 38.2 µM | 49.9 µM | 0.41 µM | 5.1 µM | 17.4 µM | 24.1 µM |  |  |  |  |  |  | 
9 | CCCCCCCOC(=O)/C=C/c1ccc(O)c(O)c1 | 21.5 µM | 35.8 µM | 2.77 µM | 4.46 µM | 34 µM | 44.7 µM |  |  |  |  |  |  | 
10 | O=C(/C=C/c1ccc(O)c(O)c1)Oc1ccc2ccccc2c1 | 8.04 µM | 39.5 µM | 0.36 µM | 3.4 µM | 44.8 µM | 14.8 µM |  |  |  |  |  |  | 
11 | CC(C)OC(=O)/C=C/c1ccc(O)c(O)c1 | 30.1 µM | 48.2 µM | 5.9 µM | 11.8 µM | 97.7 µM | 91.6 µM |  |  |  |  |  |  | 
12 | CCOC(=O)/C=C/c1ccc(O)c(O)c1 [ETHYL CAFFEATE] | 23.3 µM | 34.1 µM | 6.2 µM | 8.94 µM | > 100 µM | 64 µM |  |  |  |  |  |  | 
13 | COc1cc(/C=C/C(=O)NC23CC4CC(CC(C4)C2)C3)cc(Br)c1O | > 100 µM | 82.4 µM | 41.4 µM | 49.8 µM |  |  |  |  |  |  |  |  | 
14 | O=C(/C=C/c1ccc(O)c(O)c1)OCc1ccccc1 [BENZYL CAFFEATE] | 23.5 µM | 74.3 µM | 28.2 µM | 8 µM | 70.5 µM | 85.6 µM |  |  |  |  |  |  | 
15 | O=C(/C=C/c1cc(O)c(O)c(Br)c1)NC12CC3CC(CC(C3)C1)C2 | 33.2 µM | > 100 µM | 60.9 µM | > 100 µM |  |  |  |  |  |  |  |  | 
16 | CCC(C)OC(=O)/C=C/c1ccc(O)c(O)c1 (stereo unspecified) | 13.8 µM | 33.8 µM | 3.18 µM | 12.5 µM | > 100 µM | 95.8 µM |  |  |  |  |  |  | 
17 | C#CCOC(=O)/C=C/c1ccc(O)c(O)c1 | 19.2 µM | 39.1 µM | 8.99 µM | 12.3 µM | > 100 µM | > 100 µM |  |  |  |  |  |  | 
18 | O=C(/C=C/c1ccc(O)c(O)c1)OC1CCCCC1 | 23.9 µM | 51.5 µM | 2.75 µM | 8.32 µM | 95.5 µM | 45.5 µM |  |  |  |  |  |  | 
19 | COC(=O)/C=C/c1ccc(O)c(O)c1 [METHYLCAFFEATE] | 52.5 µM | 60.3 µM | 17.3 µM | 12.3 µM | > 100 µM | 81.5 µM |  |  |  |  |  |  | 
20 | CCCOC(=O)/C=C/c1ccc(O)c(O)c1 | 28.6 µM | 44.2 µM | 5.18 µM | 11.8 µM | > 100 µM | > 100 µM |  |  |  |  |  |  | 
21 | CCCCOC(=O)/C=C/c1ccc(O)c(O)c1 [BUTYL CAFFEATE] | 40.8 µM | 41 µM | 5.42 µM | 7.54 µM | > 100 µM | > 100 µM |  |  |  |  |  |  | 

Row | Compound | IC50 [1] | IC50 [2] | IC50 [3] | IC50 [4] | IC50 [5] | IC50 [6] | IC50 [7] | IC50 [8] | IC50 [9] | IC50 [10] | Activity [11] | Activity [12] | inhibition in vivo at 40 mg/kg [13]
22 | CCCCCCCCCCCCCCCCCCOC(=O)/C=C/c1ccc(O)c(O)c1 | > 100 µM | > 100 µM | > 100 µM | 10.2 µM | 17.2 µM | 4.95 µM |  |  |  |  |  |  | 
23 | O=C(/C=C/c1ccc(O)c(O)c1)OCCCCc1ccccc1 | 31.6 µM | 88.7 µM | 5.8 µM | 11.2 µM | 40.1 µM | 48.4 µM |  |  |  |  |  |  | 
24 | O=C(/C=C/c1cc(O)c(O)c([N+](=O)[O-])c1)OC12CC3CC(CC(C3)C1)C2 | 1.28 µM | 6.74 µM | 5.63 µM | 4.07 µM | 4.6 µM | 3.84 µM | 21.4 µM | 4.41 µM | 8.22 µM | 4.09 µM | Active | Active | 36.7%
25 | CC1(C)C2CCC1(C)C(OC(=O)/C=C/c1cc(O)c(O)c(Br)c1)C2 (stereo unspecified) | 22.7 µM | 29 µM | 20 µM | 15.2 µM |  |  |  |  |  |  |  |  | 
26 | O=P1(N(CCCl)CCCl)NCCCO1 (stereo unspecified) [CYCLOPHOSPHAMIDE ANHYDROUS] |  |  |  |  |  |  |  |  |  |  |  |  | 54.8%
27 | O=C(/C=C/c1ccc(O)c(O)c1)OC12CC3CC(CC(C3)C1)C2 | > 100 µM | > 100 µM | > 100 µM | 8.15 µM | 29.7 µM | 30 µM |  |  |  |  |  |  | 
28 | COc1cc(/C=C/C(=O)OC23CC4CC(CC(C4)C2)C3)ccc1O | 59.9 µM | > 100 µM | 70 µM | 92.4 µM |  |  |  |  |  |  |  |  | 
29 | CC1(C)C2CCC1(C)C(OC(=O)/C=C/c1ccc(O)c(O)c1)C2 (stereo unspecified) | 20.6 µM | 73.7 µM | 35.9 µM | 3.35 µM | 12 µM | 31.4 µM |  |  |  |  |  |  | 
30 | COc1cc(/C=C/C(=O)NC23CC4CC(CC(C4)C2)C3)cc(Cl)c1O | 98.4 µM | 34.8 µM | 44.5 µM | 67.9 µM |  |  |  |  |  |  |  |  | 
31 | O=C(/C=C/c1ccc(O)c(O)c1[N+](=O)[O-])OCCc1ccccc1 | 10.9 µM | 17.2 µM | 4.38 µM | 18.2 µM |  |  |  |  |  |  |  |  | 
32 | CC1(C)C2CCC1(C)C(OC(=O)/C=C/c1ccc(O)c(O)c1[N+](=O)[O-])C2 (stereo unspecified) | 13.9 µM | 51.8 µM | 9.31 µM | 52.9 µM |  |  |  |  |  |  |  |  | 
33 | COc1cccc2c1C(=O)c1c(O)c3c(c(O)c1C2=O)C[C@@](O)(C(=O)CO)C[C@@H]3O[C@H]1C[C@H](N)[C@H](O)[C@H](C)O1 [DOXORUBICIN] | 0.33 µM | 2.04 µM | 1.07 µM | 0.42 µM |  |  |  |  |  |  |  |  | 
34 | CC(C)(C)OC(=O)/C=C/c1ccc(O)c(O)c1 | 16.7 µM | 42 µM | 3.47 µM | 7.92 µM | 80 µM | 69.7 µM |  |  |  |  |  |  | 
35 | CC1(C)C2CCC1(C)C(OC(=O)/C=C/c1cc(O)c(O)c(Cl)c1)C2 (stereo unspecified) | 38.7 µM | 33.8 µM | 51.9 µM | 18.6 µM | 69.5 µM |  |  |  |  |  |  |  | 
36 | O=C(/C=C/c1ccc(O)c(O)c1)OCCc1ccccc1 [CAFFEIC ACID PHENETHYL ESTER] | 38 µM | 66.9 µM | 2.96 µM | 16.6 µM | 14.3 µM | 40.9 µM |  |  |  |  |  |  | 
37 | COc1c(O)ccc(/C=C/C(=O)NC23CC4CC(CC(C4)C2)C3)c1[N+](=O)[O-] | 91.3 µM | 38.9 µM | 26.7 µM | 73.2 µM |  |  |  |  |  |  |  |  | 
38 | COc1cc(/C=C/C(=O)NC23CC4CC(CC(C4)C2)C3)ccc1O | > 100 µM | 67.6 µM | > 100 µM | > 100 µM |  |  |  |  |  |  |  |  | 
39 | COc1cc(/C=C/C(=O)NC23CC4CC(CC(C4)C2)C3)cc([N+](=O)[O-])c1O | 66.8 µM | 59.5 µM | 68.2 µM | 18.7 µM |  |  |  |  |  |  |  |  | 
40 | O=C(/C=C/c1cc(O)c(O)c(Cl)c1)OCCc1ccccc1 |  |  |  | 7.01 µM | 8.18 µM |  |  |  |  |  |  |  | 
41 | C=CCOC(=O)/C=C/c1ccc(O)c(O)c1 | 67.2 µM | 30.7 µM | 8.64 µM | 11.5 µM | 89.2 µM | > 100 µM |  |  |  |  |  |  | 
